Test systems include HCT-15 colon; OVCAR-8 ovarian; ACHN renal; MOLT-4 leukemia; SK-MEL-28 melanoma; COLO 205 colon; OVCAR-3 ovarian; HCT-116 colon; DU-145 prostate; MCF7 breast.
Holding throughout (assay): NCI tumour cell line growth inhibition, 48 h

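Values below derive from 48-hour exposures of cells grown in 96-well plates, with endpoints linearly interpolated between the two concentrations bracketing the appropriate inhibition level. TGI: concentration producing complete growth inhibition.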 Bounds are passed on as bounds.

`COc1c(O)c(C=O)c2c(O)c(-c3c(C)cc4c(C(C)C)c(OC)c(O)c(C=O)c4c3O)c(C)cc2c1C(C)C`: the TGI in the assay on HCT-15 colon worked out at 14 µM; with OVCAR-8 ovarian, 16.4 µM; in the assay on ACHN renal it was 8.05 µM; with MOLT-4 leukemia, 27.9 µM; in the assay on SK-MEL-28 melanoma, 22.7 µM; with COLO 205 colon, 4 µM. Also, the TGI in the assay with OVCAR-3 ovarian was 10.7 µM; with HCT-116 colon, 5.39 µM.

Take `O=S(Nc1ccccc1)c1ccc(N2CCOCC2)cc1` (centres undefined): the TGI in the assay with HCT-15 colon, in the assay on OVCAR-8 ovarian, in the assay on ACHN renal, in the assay with DU-145 prostate, with MOLT-4 leukemia and with SK-MEL-28 melanoma was above 100 µM each time. Moreover, the TGI with MCF7 breast, in the assay with COLO 205 colon, with OVCAR-3 ovarian and in the assay on HCT-116 colon was above 100 µM throughout.

For the compound `Cc1ccc(OCC2OC(n3cnc4c(Cl)nc(N)nc43)CC2Oc2ccc(C)cc2)cc1` (centres undefined), the TGI in the assay with HCT-15 colon is above 100 µM; in the assay with OVCAR-8 ovarian it was above 100 µM; in the assay with ACHN renal, 40 µM; in the assay with DU-145 prostate it was above 100 µM; with MOLT-4 leukemia it was above 100 µM; in the assay on SK-MEL-28 melanoma, above 100 µM. The TGI with MCF7 breast is above 13.3 µM; in the assay with COLO 205 colon, 98.2 µM; in the assay with OVCAR-3 ovarian it was above 63.9 µM; in the assay with HCT-116 colon it was above 100 µM.

Regarding `CC1CCCC2(CC[N+](C)(CCC[N+](C)(C)C)CC2)C1` (centres undefined), the TGI in the assay with HCT-15 colon, with OVCAR-8 ovarian, in the assay with ACHN renal, in the assay with DU-145 prostate, in the assay with MOLT-4 leukemia and with SK-MEL-28 melanoma was above 100 µM in each case. The TGI in the assay on MCF7 breast, with COLO 205 colon, in the assay on OVCAR-3 ovarian and in the assay with HCT-116 colon was above 100 µM in each case.

Regarding `COc1ccc2c3c1OC1C(=O)C=CC4(CC2)N(C)CCC314` (centres undefined), the TGI with HCT-15 colon is above 100 µM; with OVCAR-8 ovarian, above 100 µM; in the assay on ACHN renal, 73.9 µM; in the assay on DU-145 prostate, above 100 µM; in the assay with MOLT-4 leukemia, 59 µM; in the assay with SK-MEL-28 melanoma it was 66.1 µM. Further, the TGI is above 100 µM in the assay on MCF7 breast, 22.7 µM with COLO 205 colon, above 100 µM with OVCAR-3 ovarian and 29.1 µM in the assay on HCT-116 colon.

Take `O=[N+]([O-])c1ccc2sc(C=Nc3cnccn3)cc2c1`: the TGI with HCT-15 colon is above 100 µM; in the assay with OVCAR-8 ovarian, above 100 µM; with ACHN renal, above 100 µM; with DU-145 prostate it was above 100 µM; in the assay with MOLT-4 leukemia, 34.3 µM; with SK-MEL-28 melanoma, above 100 µM. Further, the TGI in the assay with MCF7 breast, in the assay on COLO 205 colon, with OVCAR-3 ovarian and in the assay on HCT-116 colon was above 100 µM in each case.

In the case of `COP(=O)(OC)C(Cc1cn(C(C)=O)c2ccccc12)C(=O)O` (centres undefined), the TGI in the assay with HCT-15 colon, in the assay with OVCAR-8 ovarian, with ACHN renal, in the assay with DU-145 prostate, in the assay with MOLT-4 leukemia and with SK-MEL-28 melanoma was above 100 µM each time. The TGI with MCF7 breast, in the assay on COLO 205 colon, in the assay with OVCAR-3 ovarian and in the assay on HCT-116 colon was above 100 µM throughout.

Regarding `C/C=C/c1cc(=O)c([C@@H]2OC(=O)c3cc(OC)cc(OC)c32)co1`, the TGI was above 100 µM in the assay on OVCAR-8 ovarian; above 100 µM in the assay on ACHN renal; above 100 µM with MOLT-4 leukemia; above 100 µM with SK-MEL-28 melanoma; 55.5 µM with COLO 205 colon; 64.3 µM with OVCAR-3 ovarian. Moreover, the TGI with HCT-116 colon is above 100 µM.

Take `COc1cc([C@@H]2c3cc4c(cc3[C@@H](c3c(O)cc(O)c5c3O[C@H](c3ccc(O)c(O)c3)[C@@H](O)C5)[C@H]3COC(=O)[C@H]23)OCO4)cc(OC)c1OC`: the TGI is above 100 µM in the assay with HCT-15 colon; above 100 µM in the assay with OVCAR-8 ovarian; 3.16 µM in the assay with ACHN renal; 3.22 µM in the assay with DU-145 prostate; above 100 µM in the assay on MOLT-4 leukemia; above 100 µM in the assay with SK-MEL-28 melanoma. The TGI in the assay on MCF7 breast was 3.11 µM; in the assay on COLO 205 colon it was 51.8 µM; in the assay on OVCAR-3 ovarian, 3.22 µM; in the assay on HCT-116 colon, above 100 µM.

Take `CCNC(=S)N=Nc1c(O)[nH]c2ccc([N+](=O)[O-])cc12`: the TGI in the assay on HCT-15 colon, with OVCAR-8 ovarian, in the assay with ACHN renal, in the assay with DU-145 prostate, in the assay on MOLT-4 leukemia and in the assay on SK-MEL-28 melanoma was above 100 µM in each case. Also, the TGI with MCF7 breast, with COLO 205 colon, in the assay on OVCAR-3 ovarian and in the assay with HCT-116 colon was above 100 µM each time.

On to `O=c1[nH]nc(-c2ccccc2)n1/N=C\c1ccccc1`, for which the TGI in the assay with HCT-15 colon, in the assay with OVCAR-8 ovarian, with ACHN renal, in the assay with DU-145 prostate, in the assay on MOLT-4 leukemia and in the assay with SK-MEL-28 melanoma was above 100 µM in each case. For the same compound, the TGI in the assay on MCF7 breast, with COLO 205 colon, in the assay with OVCAR-3 ovarian and with HCT-116 colon was above 100 µM each time.

For the compound `COc1cccc(CCN2CCN(CCCc3ccccc3)CC2)c1`, the TGI in the assay with HCT-15 colon, with OVCAR-8 ovarian, in the assay with ACHN renal, in the assay on DU-145 prostate, in the assay with MOLT-4 leukemia and in the assay on SK-MEL-28 melanoma was above 100 µM each time. The TGI in the assay with MCF7 breast is above 100 µM; in the assay with COLO 205 colon, 45.2 µM; in the assay with OVCAR-3 ovarian it was above 100 µM; with HCT-116 colon, above 100 µM.

`O=C1CCCCC/C1=C\c1ccc([N+](=O)[O-])cc1`: the TGI is above 100 µM in the assay on OVCAR-8 ovarian; 55 µM in the assay with ACHN renal; above 100 µM in the assay with DU-145 prostate; above 100 µM in the assay on MOLT-4 leukemia; above 100 µM in the assay with SK-MEL-28 melanoma; above 100 µM with MCF7 breast. Also, the TGI in the assay with COLO 205 colon worked out at 49.2 µM; with OVCAR-3 ovarian, 73.2 µM; in the assay with HCT-116 colon it was 57.6 µM.
